Measurements published in publication PMC5218480 (PLoS ONE, 2017).

System: MV-4-11 cells
Assay: Gene expression microarray analysis (Affymetrix PrimeView) and GSEA
Assay type: cell-based, human
Parameters: RFU PODN (11730768_x_at) / Fold change /veh PODN (11730768_x_at) / RFU LINC00158 (11744669_a_at) / Fold change /veh LINC00158 (11744669_a_at) / RFU DUSP10 (11751237_a_at) / Fold change /veh DUSP10 (11751237_a_at) / RFU ID3 (11757404_x_at) / Fold change /veh ID3 (11757404_x_at) / RFU PLEKHG5 (11737974_s_at) / Fold change /veh PLEKHG5 (11737974_s_at) / RFU LRRC4B (11730491_at) / Fold change /veh LRRC4B (11730491_at) / RFU GIMAP4 (11747438_a_at) / Fold change /veh GIMAP4 (11747438_a_at) / RFU KRT8 (11758183_x_at) / Fold change /veh KRT8 (11758183_x_at) / RFU CNN1 (11734310_a_at) / Fold change /veh CNN1 (11734310_a_at) / RFU VPS37D (11726825_at) / Fold change /veh VPS37D (11726825_at) / RFU C10orf10 (11716522_x_at) / Fold change /veh C10orf10 (11716522_x_at) / RFU KIR2DL2 /// KIR2DL4 /// KIR2DL5A /// KIR2DL5B /// KIR2DS1 /// KIR2DS2 /// KIR2DS3 /// KIR2DS4 /// KIR3DL3 /// KIR3DL3 /// KIR3DS1 (11738374_at) / Fold change /veh KIR2DL2 /// KIR2DL4 /// KIR2DL5A /// KIR2DL5B /// KIR2DS1 /// KIR2DS2 /// KIR2DS3 /// KIR2DS4 /// KIR3DL3 /// KIR3DL3 /// KIR3DS1 (11738374_at) / RFU C1QL1 (11718748_at) / Fold change /veh C1QL1 (11718748_at) / RFU TMPRSS4 (11747572_a_at) / Fold change /veh TMPRSS4 (11747572_a_at) / RFU HAMP (11756126_x_at) / Fold change /veh HAMP (11756126_x_at) / RFU RNFT2 (11725882_a_at) / Fold change /veh RNFT2 (11725882_a_at) / RFU NR4A2 (11747474_a_at) / Fold change /veh NR4A2 (11747474_a_at) / RFU ABCC12 (11746883_a_at) / Fold change /veh ABCC12 (11746883_a_at) / RFU TMEM136 (11760407_x_at) / Fold change /veh TMEM136 (11760407_x_at) / RFU CLDN22 /// WWC2 (11732394_at) / Fold change /veh CLDN22 /// WWC2 (11732394_at) / RFU HLA-DPB1 (11760878_x_at) / Fold change /veh HLA-DPB1 (11760878_x_at) / RFU SPINT1 (11716480_a_at) / Fold change /veh SPINT1 (11716480_a_at) / RFU GAP43 (11754022_s_at) / Fold change /veh GAP43 (11754022_s_at) / RFU A4GNT (11735810_at) / Fold change /veh A4GNT (11735810_at) / RFU PRB3 (11715151_x_at) / Fold change /veh PRB3 (11715151_x_at) / RFU TUBB4B (11761932_at) / Fold change /veh TUBB4B (11761932_at) / RFU CAPN14 (11732068_a_at) / Fold change /veh CAPN14 (11732068_a_at) / RFU TMCC2 (11721928_a_at) / Fold change /veh TMCC2 (11721928_a_at) / RFU IRGQ (11745062_a_at) / Fold change /veh IRGQ (11745062_a_at) / RFU FAM174B (11720279_a_at) / Fold change /veh FAM174B (11720279_a_at) / RFU TMPRSS4 (11748680_a_at) / Fold change /veh TMPRSS4 (11748680_a_at) / RFU FAM212B (11763350_a_at) / Fold change /veh FAM212B (11763350_a_at) / RFU PLEKHG5 (11743358_a_at) / Fold change /veh PLEKHG5 (11743358_a_at) / RFU ZSCAN30 (11745921_a_at) / Fold change /veh ZSCAN30 (11745921_a_at) / RFU CMKLR1 (11741424_a_at) / Fold change /veh CMKLR1 (11741424_a_at) / RFU LOC101060620 /// MAPK8IP1 (11723275_at) / Fold change /veh LOC101060620 /// MAPK8IP1 (11723275_at) / RFU SPTSSB (11747773_x_at) / Fold change /veh SPTSSB (11747773_x_at) / RFU PRSS12 (11739890_at) / Fold change /veh PRSS12 (11739890_at) / RFU BIN1 (11741810_x_at) / Fold change /veh BIN1 (11741810_x_at) / RFU WNT11 (11732464_a_at) / Fold change /veh WNT11 (11732464_a_at) / RFU C10orf10 (11716521_a_at) / Fold change /veh C10orf10 (11716521_a_at) / RFU C5orf56 (11738089_at) / Fold change /veh C5orf56 (11738089_at) / RFU CYB561 (11721691_x_at) / Fold change /veh CYB561 (11721691_x_at) / RFU ANKRD19P (11752326_a_at) / Fold change /veh ANKRD19P (11752326_a_at) / RFU OR2T12 /// OR2T33 /// OR2T8 (11738714_s_at) / Fold change /veh OR2T12 /// OR2T33 /// OR2T8 (11738714_s_at) / RFU VCAN (11748164_a_at) / Fold change /veh VCAN (11748164_a_at) / RFU JSRP1 (11732532_at) / Fold change /veh JSRP1 (11732532_at) / RFU KRTAP10-11 (11738290_x_at) / Fold change /veh KRTAP10-11 (11738290_x_at) / RFU MYO3A (11730013_a_at) / Fold change /veh MYO3A (11730013_a_at) / RFU EBF3 (11725865_a_at) / Fold change /veh EBF3 (11725865_a_at) / RFU CAMK2N1 (11719241_x_at) / Fold change /veh CAMK2N1 (11719241_x_at) / RFU C5orf56 (11738088_a_at) / Fold change /veh C5orf56 (11738088_a_at) / RFU OLFML3 (11715873_a_at) / Fold change /veh OLFML3 (11715873_a_at) / RFU LOC100653217 /// NTM (11731650_a_at) / Fold change /veh LOC100653217 /// NTM (11731650_a_at) / RFU MAPK11 (11762145_a_at) / Fold change /veh MAPK11 (11762145_a_at) / RFU FIZ1 (11724087_x_at) / Fold change /veh FIZ1 (11724087_x_at) / RFU OASL (11726364_x_at) / Fold change /veh OASL (11726364_x_at) / RFU SOX15 (11748057_x_at) / Fold change /veh SOX15 (11748057_x_at) / RFU CD79A (11719716_a_at) / Fold change /veh CD79A (11719716_a_at) / RFU HIST1H1D (11736915_at) / Fold change /veh HIST1H1D (11736915_at) / RFU CASKIN2 (11723855_a_at) / Fold change /veh CASKIN2 (11723855_a_at) / RFU LOC730098 (11760151_x_at) / Fold change /veh LOC730098 (11760151_x_at) / RFU OR4N2 (11742367_at) / Fold change /veh OR4N2 (11742367_at) / RFU PRRT2 (11749266_a_at) / Fold change /veh PRRT2 (11749266_a_at) / RFU SNX32 (11753110_a_at) / Fold change /veh SNX32 (11753110_a_at) / RFU CDHR5 (11726645_a_at) / Fold change /veh CDHR5 (11726645_a_at) / RFU RCAN1 (11760418_a_at) / Fold change /veh RCAN1 (11760418_a_at) / RFU FAM167A (11723789_a_at) / Fold change /veh FAM167A (11723789_a_at) / RFU FAM26E (11764081_at) / Fold change /veh FAM26E (11764081_at) / RFU ISYNA1 (11749810_s_at) / Fold change /veh ISYNA1 (11749810_s_at) / RFU ACY1 (11761880_at) / Fold change /veh ACY1 (11761880_at) / RFU 11764098_at / Fold change /veh 11764098_at / RFU SAMD14 (11745864_x_at) / Fold change /veh SAMD14 (11745864_x_at) / RFU NPB (11741838_a_at) / Fold change /veh NPB (11741838_a_at) / RFU TMPRSS6 (11731388_a_at) / Fold change /veh TMPRSS6 (11731388_a_at) / RFU KRTAP10-2 (11738614_at) / Fold change /veh KRTAP10-2 (11738614_at) / RFU ARHGAP8 /// PRR5-ARHGAP8 (11727945_x_at) / Fold change /veh ARHGAP8 /// PRR5-ARHGAP8 (11727945_x_at) / RFU KRTAP5-7 /// NADSYN1 (11734609_at) / Fold change /veh KRTAP5-7 /// NADSYN1 (11734609_at) / RFU RASL12 (11751679_a_at) / Fold change /veh RASL12 (11751679_a_at) / RFU CDKN2B (11736163_a_at) / Fold change /veh CDKN2B (11736163_a_at) / RFU PRF1 (11729649_at) / Fold change /veh PRF1 (11729649_at) / RFU, ZNF638 /// ZNF638-IT1 / Fold change vs veh, ZNF638 /// ZNF638-IT1 / RFU, PANK3 / Fold change vs veh, PANK3 / RFU, SH3YL1 / Fold change vs veh, SH3YL1 / RFU, ZEB2 / Fold change vs veh, ZEB2 / RFU, NRIP1 / Fold change vs veh, NRIP1 / RFU, PTTG1IP / Fold change vs veh, PTTG1IP / RFU, CAPN2 / Fold change vs veh, CAPN2 / RFU, MED14 / Fold change vs veh, MED14 / RFU, SNORA58 / Fold change vs veh, SNORA58 / RFU, C1orf63 / Fold change vs veh, C1orf63 / RFU, LRRFIP1 / Fold change vs veh, LRRFIP1 / RFU, NDUFAF7 / Fold change vs veh, NDUFAF7 / RFU, SLC12A2 / Fold change vs veh, SLC12A2 / RFU, IBTK / Fold change vs veh, IBTK / RFU, ESF1 / Fold change vs veh, ESF1 / Fold change vs veh, TMEM50B / RFU, TAOK1 / Fold change vs veh, TAOK1 / RFU, ACBD3 / Fold change vs veh, ACBD3 / RFU, TMA16 / Fold change vs veh, TMA16 / RFU, RWDD3 / Fold change vs veh, RWDD3 / RFU, BCAT1 / Fold change vs veh, BCAT1 / RFU, EDEM3 / Fold change vs veh, EDEM3 / RFU, TMEM33 / Fold change vs veh, TMEM33 / RFU, WDR75 / Fold change vs veh, WDR75 / RFU, AHCTF1 / Fold change vs veh, AHCTF1 / RFU, TFRC / Fold change vs veh, TFRC / RFU, ZDHHC17 / Fold change vs veh, ZDHHC17 / RFU, NOM1 / Fold change vs veh, NOM1 / RFU, ARL8B / Fold change vs veh, ARL8B / RFU, ZBTB11 / Fold change vs veh, ZBTB11 / RFU, TAMM41 / Fold change vs veh, TAMM41 / RFU, KIAA1704 /// LOC100996395 / Fold change vs veh, KIAA1704 /// LOC100996395 / RFU, ING1 / Fold change vs veh, ING1 / RFU, TRMT61B / Fold change vs veh, TRMT61B / RFU, FUBP3 / Fold change vs veh, FUBP3 / RFU, TP53 / Fold change vs veh, TP53 / RFU, TNKS2 / Fold change vs veh, TNKS2 / RFU, ZFP14 / Fold change vs veh, ZFP14 / RFU, ACTR2 / Fold change vs veh, ACTR2 / RFU, PPP3R1 / Fold change vs veh, PPP3R1 / RFU, PIK3R1 / Fold change vs veh, PIK3R1 / RFU, HNRNPA1 / Fold change vs veh, HNRNPA1 / RFU, RNF170 / Fold change vs veh, RNF170 / RFU, ZNF28 / Fold change vs veh, ZNF28 / RFU, RNGTT / Fold change vs veh, RNGTT / RFU, OGT / Fold change vs veh, OGT / RFU, BRD1 / Fold change vs veh, BRD1 / RFU, MARS / Fold change vs veh, MARS / RFU, ZNF655 / Fold change vs veh, ZNF655 / RFU, FAHD1 / Fold change vs veh, FAHD1 / RFU, BDP1 / Fold change vs veh, BDP1 / RFU, LRRCC1 / Fold change vs veh, LRRCC1 / RFU, ARID1A / Fold change vs veh, ARID1A / RFU, ZNF146 / Fold change vs veh, ZNF146 / RFU, ZNF330 / Fold change vs veh, ZNF330 / RFU, GPN3 / Fold change vs veh, GPN3 / RFU, C9orf123 / Fold change vs veh, C9orf123 / RFU, N4BP2L2 / Fold change vs veh, N4BP2L2 / RFU, ARFIP1 / Fold change vs veh, ARFIP1 / RFU, FAM179B / Fold change vs veh, FAM179B / RFU, BCL10 / Fold change vs veh, BCL10 / RFU, UHRF1BP1L / Fold change vs veh, UHRF1BP1L / RFU, BET1 / Fold change vs veh, BET1 / RFU, CNOT2 / Fold change vs veh, CNOT2 / RFU, ZNF268 / Fold change vs veh, ZNF268 / Fold change vs veh, ZNF507 / RFU, DGCR2 / Fold change vs veh, DGCR2 / RFU, WDSUB1 / Fold change vs veh, WDSUB1 / Fold change vs veh, HSP90B1 /// MIR3652 / RFU, ADSS / Fold change vs veh, ADSS / RFU, GK / Fold change vs veh, GK / RFU, ZNF148 / Fold change vs veh, ZNF148 / RFU, TAF9 / Fold change vs veh, TAF9 / RFU, SLC1A5 / Fold change vs veh, SLC1A5 / RFU, SLMO2 / Fold change vs veh, SLMO2 / RFU, ABCC4 / Fold change vs veh, ABCC4 / RFU, LOC101060439 /// RAP1B / Fold change vs veh, LOC101060439 /// RAP1B / RFU, RFX7 / Fold change vs veh, RFX7 / RFU, GTPBP10 / Fold change vs veh, GTPBP10 / RFU, CNEP1R1 / Fold change vs veh, CNEP1R1 / RFU, BIVM-ERCC5 /// ERCC5 / Fold change vs veh, BIVM-ERCC5 /// ERCC5 / RFU, ILF3 / Fold change vs veh, ILF3 / RFU 11762660_at / Fold change /veh 11762660_at / RFU VCAN (11757783_s_at) / Fold change /veh VCAN (11757783_s_at) / RFU DDX43 (11728927_at) / Fold change /veh DDX43 (11728927_at) / RFU KRT8 (11758188_x_at) / Fold change /veh KRT8 (11758188_x_at) / RFU NKD1 (11759106_at) / Fold change /veh NKD1 (11759106_at) / RFU SRD5A1 (11742802_a_at) / Fold change /veh SRD5A1 (11742802_a_at) / RFU TPSAB1 /// TPSB2 (11721975_s_at) / Fold change /veh TPSAB1 /// TPSB2 (11721975_s_at) / RFU GSTM3 (11746129_a_at) / Fold change /veh GSTM3 (11746129_a_at) / RFU IL23R (11737362_x_at) / Fold change /veh IL23R (11737362_x_at) / RFU TMEM51 (11727254_a_at) / Fold change /veh TMEM51 (11727254_a_at) / RFU PIWIL2 (11732686_x_at) / Fold change /veh PIWIL2 (11732686_x_at) / RFU ORM1 (11744905_x_at) / Fold change /veh ORM1 (11744905_x_at) / RFU CCDC152 (11743942_at) / Fold change /veh CCDC152 (11743942_at) / RFU ECM1 (11717891_a_at) / Fold change /veh ECM1 (11717891_a_at) / RFU IL23R (11748794_a_at) / Fold change /veh IL23R (11748794_a_at) / RFU TNFAIP8L3 (11732012_x_at) / Fold change /veh TNFAIP8L3 (11732012_x_at) / RFU MBOAT4 (11741988_at) / Fold change /veh MBOAT4 (11741988_at) / RFU 11764193_at / Fold change /veh 11764193_at / RFU TMEM53 (11763286_at) / Fold change /veh TMEM53 (11763286_at) / RFU MAGEB2 (11727129_at) / Fold change /veh MAGEB2 (11727129_at) / RFU TMEM200A (11744735_a_at) / Fold change /veh TMEM200A (11744735_a_at) / RFU CCDC152 (11751479_a_at) / Fold change /veh CCDC152 (11751479_a_at) / RFU FAM211A (11726209_a_at) / Fold change /veh FAM211A (11726209_a_at) / RFU RGS16 (11746705_a_at) / Fold change /veh RGS16 (11746705_a_at) / RFU VCAN (11755009_s_at) / Fold change /veh VCAN (11755009_s_at) / RFU RHOB (11743442_s_at) / Fold change /veh RHOB (11743442_s_at) / RFU RGS16 (11720943_a_at) / Fold change /veh RGS16 (11720943_a_at) / RFU RGS16 (11720944_at) / Fold change /veh RGS16 (11720944_at) / RFU, VPS4B / Fold change vs veh, VPS4B / RFU, CREB1 / Fold change vs veh, CREB1 / RFU, DNAJC13 / Fold change vs veh, DNAJC13 / RFU, GNAQ / Fold change vs veh, GNAQ / RFU, CDK5R1 / Fold change vs veh, CDK5R1 / RFU, ZRANB3 / Fold change vs veh, ZRANB3 / RFU, CUL4A / Fold change vs veh, CUL4A / RFU, CCNY / Fold change vs veh, CCNY / RFU, UFL1 / Fold change vs veh, UFL1 / RFU, COG3 / Fold change vs veh, COG3 / RFU, DIAPH2 / Fold change vs veh, DIAPH2 / RFU, SKA2 / Fold change vs veh, SKA2 / RFU, AFF3 / Fold change vs veh, AFF3 / RFU, LMF1 / Fold change vs veh, LMF1 / RFU, IPO11 / Fold change vs veh, IPO11 / RFU, DFFB / Fold change vs veh, DFFB / RFU, FOXP1 / Fold change vs veh, FOXP1 / RFU, CARD8 / Fold change vs veh, CARD8 / RFU, STRN3 / Fold change vs veh, STRN3 / RFU, ADK / Fold change vs veh, ADK / RFU, RASSF2 / Fold change vs veh, RASSF2 / RFU, WIPF1 / Fold change vs veh, WIPF1 / RFU, LARP1B / Fold change vs veh, LARP1B / RFU, RASA1 / Fold change vs veh, RASA1 / RFU, RB1 / Fold change vs veh, RB1 / RFU, PPFIA1 / Fold change vs veh, PPFIA1 / RFU, MAT2A / Fold change vs veh, MAT2A / RFU, CCT5 / Fold change vs veh, CCT5 / RFU, WDR92 / Fold change vs veh, WDR92 / RFU, CUX1 / Fold change vs veh, CUX1 / RFU, TTC7A / Fold change vs veh, TTC7A / RFU, TMEM135 / Fold change vs veh, TMEM135 / RFU, DEPTOR / Fold change vs veh, DEPTOR / RFU, CPM / Fold change vs veh, CPM / RFU, DNAJB6 / Fold change vs veh, DNAJB6 / RFU, CACNA2D3 / Fold change vs veh, CACNA2D3 / RFU, DTX4 / Fold change vs veh, DTX4 / RFU, TFCP2 / Fold change vs veh, TFCP2 / RFU, GMCL1 /// GMCL1P1 / Fold change vs veh, GMCL1 /// GMCL1P1 / RFU, AEBP2 / Fold change vs veh, AEBP2 / RFU, SNHG1 /// SNORD22 /// SNORD25 /// SNORD26 /// SNORD27 /// SNORD28 /// SNORD29 /// SNORD31 / Fold change vs veh, SNHG1 /// SNORD22 /// SNORD25 /// SNORD26 /// SNORD27 /// SNORD28 /// SNORD29 /// SNORD31 / Fold change (Aza/veh), C12orf56 (ProbeSet 11735607_a_at) / Fold change (ACY-1035/veh), C12orf56 (ProbeSet 11735607_a_at) / Fold change (Aza/veh), FGFR1OP (ProbeSet 11751329_s_at) / Fold change (ACY-1035/veh), FGFR1OP (ProbeSet 11751329_s_at) / Fold change (Aza/veh), VPS36 (ProbeSet 11739960_a_at) / Fold change (ACY-1035/veh), VPS36 (ProbeSet 11739960_a_at) / RFU SYPL1 (11715823_x_at) / Fold change /veh SYPL1 (11715823_x_at) / RFU IGFBP7 (11715501_s_at) / Fold change /veh IGFBP7 (11715501_s_at) / RFU REEP3 (11722064_at) / Fold change /veh REEP3 (11722064_at) / RFU IGLL1 (11728026_x_at) / Fold change /veh IGLL1 (11728026_x_at): dose or concentration left out as unconfirmed
Conditions: MV-4-11 cells, 48 hours

Nc1ccc(-c2cccs2)cc1NC(=O)c1ccc2c(c1)cc(C1CC1)n2CCN1CCOCC1 [ACY-1035]
Fold change /veh C10orf10 (11716522_x_at): 1.10
